Experiments:
[1] = tested on: gliadin-degrading enzymes of strain WSA-8
Experimental: (§1) Saliva ion buffer contains 50 mM KCl, 1 mM K2HPO4, 1 mM CaCl2 and 0.1 mM MgCl2 (pH 6.5). Cells were preincubated with the inhibitors for 15 min at room temperature prior to the addition of substrate. Z-YPQ-pNA hydrolysis was followed at 405 nm. Initial velocities of the enzymatic reaction are plotted.
(§2) Inhibitory effects were monitored toward the capacity to hydrolyze Z-YPQ-pNA. The initial rate of substrate proteolysis (Vi) was determined during the first 30 minute incubation time interval.

[2] = tested on: gliadin-degrading enzymes of strain WSA-2B
Experimental: as §1, §2

Structure (SMILES): Cl.NCCc1ccc(S(=O)(=O)F)cc1 [AEBSF, 4-(2-Aminoethyl) benzenesulfonyl fluoride hydrochloride]
- inhibition of Z-YPQ-pNA hydrolysis (initial rate Vi) in WSA-8 [1]: 78%
- inhibition of Z-YPQ-pNA hydrolysis (initial rate Vi) in WSA-2B [2]: 97%

Reference: patent publication US8685392B2 (priority 2009, dated 2014)
